Data on nine compounds can be found in US10301294B2, “Compounds for the treatment of tuberculosis” (priority 2013, dated 2019).

Where two headings read alike, the source gives them in different places.

In test [1] the test system is replicating M. tuberculosis H37Rv. Description: microbe, parasite or virus in culture. The class given is cell-based. The note with it: for Against Replicating Mtb, % @ 125: at 125 uM.
Test [2] has as its system carbon-starved M. tuberculosis H37Rv. Description: microbe, parasite or virus in culture. The class given is cell-based.
For test [3], the system named is TB. In words: MIC of control anti-tuberculosis antibiotics. Format: cell-based, M. tuberculosis. The note with it: Mycobacterium tuberculosis.
For test [4], the system named is carbon-starved M. tuberculosis H37Rv. In words: Non-replicating IC90 determination by luciferase (carbon-starved cells). Particulars: FIG. 1C; read-out: IC90 for non-replicating starved cells by luciferase assay. The class given is cell-based.
Test [5] relates to replicating M. tuberculosis H37Rv. The class given is cell-based. The note with it: FIG. 1A; read-out: IC90 against replicating, logarithmically growing bacteria measured by OD600 (converted).
Where [6] appears, read: Mycobacterium tuberculosis, H37RV, read-out: Against carbon starving non-replicating Mtb IC90.
[7] abbreviates: Mycobacterium tuberculosis, H37RV, read-out: Against Replicating Mtb IC90.

As for `COc1cccc(-c2nnc(SCc3ccccn3)o2)c1` [drawing 274], in test [1] ([…], at 62 uM), the “Against Replicating Mtb, % @ 62” value is on record as 99% @ 62. In test [2] ([…], at 16 uM), the “Against carbon starving non-replicating Mtb, % @ 16” value is listed as 99% @ 16.

What is called MIC is the smallest concentration in the dilution series that meets the test's criterion for growth inhibition. As for `CO[C@H]1/C=C/O[C@@]2(C)Oc3c(C)c(O)c4c(O)c(c(/C=N/N5CCN(C)CC5)c(O)c4c3C2=O)NC(=O)/C(C)=C\C=C\[C@H](C)[C@H](O)[C@@H](C)[C@@H](O)[C@@H](C)[C@H](OC(C)=O)[C@@H]1C` [rifampin], the MIC in test [3] is 0.01 µg/mL.

With `Clc1ccc(-c2nnc(SCc3cn(-c4ccccc4)nn3)o2)cc1`, the IC90 is more than 62 µM in test [4]; more than 62 µM in test [5]; more than 62 µM in test [1] (FIG. 1B, read-out: IC90 against replicating, logarithmically growing bacteria measured by CFU/mL (converted)); 1 µM in test [2] (FIG. 1D, read-out: IC90 against non-replicating, starved cells by CFU/mL).

As to `NNC(=O)c1ccncc1` [INH, isoniazid], the MIC in test [3] came out at 0.1 µg/mL.

Regarding `Clc1ccc(-c2nnc(SCc3cn(Cc4ccccc4)nn3)o2)cc1` [drawing 273], in test [1] ([…]), the “Against Replicating Mtb, % @ 125” value was determined as 98% @ 125. The “Against carbon starving non-replicating Mtb, % @ 4” value in test [2] turned out to be 99% @ 4.

`[O-][S+](Cc1ccccc1)c1nnc(-c2ccccc2)o1` (stereo not drawn) [drawing 267]: the “Against Replicating Mtb, % @ 31” value in test [1] ([…], at 31 uM) stood at 100% @ 31. Further, the IC90 in test [2] (setting [6]) worked out at 4 µM.

`COC(=O)CCCOc1ccc(CSc2nnc(-c3ccc(Cl)cc3)o2)nc1` [drawing 276]: in test [1] (setting [7]), the IC90 came to 31 µM. The “Against carbon starving non-replicating Mtb, % @ 8” value in test [2] is reported as 99% @ 8.

In the case of `c1ccc(-c2nnc(SCc3ccccn3)o2)cc1` [drawing 261], in test [1] ([…]), the “Against Replicating Mtb, % @ 125” value turned out to be 99% @ 125. Further, in test [2] (setting [6]), the IC90 worked out at 4 µM.

Take `Fc1cccc(-c2nnc(SCc3ccccn3)o2)c1` [drawing 270]: the IC90 in test [1] (setting [7]) was 31 µM; in test [2] (setting [6]), less than 8 µM.
